Patent US8921107B2, “Method for differentiating human neural progenitor cells into dopaminergic neurons, and medium for differentiation thereof” (College of Medicine Pochon Cha University Industry-Academic …, priority 2010, dated 2014)
“Also recorded” adds a separate entry of the source.

Key:
[1] = test system: human neural progenitor cells (hNPCs); assay: Differentiation of hNPCs under hypoxia or normoxia; TH expression (FIG. 5); type: cell-based; settings: NB medium with 2% B-27, 10 μM forskolin, 100 μM fusaric acid, 100 μM db-cAMP; 3% versus 21% oxygen partial pressure
Procedure: hNPCs were proliferated in a DMEM/F12 (1:1) Glutamax medium, and then differentiated in a Neurobasal (NB) medium (Invitrogen) containing 2% of B-27, 10 μM of forskolin, 100 μM of fusaric acid, and 100 μM of db-cAMP, under the hypoxia condition (3% of oxygen partial pressure) or the normoxia condition (21% of oxygen partial pressure). After induction of the differentiation, the expression levels of TH were measured (FIG. 5).

[2] = test system: human neural progenitor cells (hNPCs); assay: Differentiation of hNPCs in NB medium with or without 100 μM fusaric acid; TH and Tuj1 expression, immunocytochemistry and RT-PCR (FIGS. 2, 3); type: cell-based; settings: 100 μM fusaric acid added to NB medium with 2% B-27 minus-AO, 10 μM forskolin, 1 mM db-cAMP, versus without
Procedure: Total cellular RNAs were extracted from the hNPC, using Trizol and chloroform. cDNAs were synthesized from 500 ng of the total RNAs, using RNA Superscript II RTase, Oligo-d(T) primers, DTT and dNTPs, according to the manufacturer's protocol. The PCR was performed in a final volume of 20 μl containing 1 μl of cDNA and 1 μl of 10 pM primers, using a SYBR-Green mixture. The expressions of TH, DAT, GFAP, Nurr1, Tuj1, and Lmx1a were analyzed, using RPL22 as an internal control. The quantitative real-time PCR was performed using the LightCycler System. The amplification was monitored and analyzed through measuring the binding of the fluorescent dye SYBR Green to double-stranded DNA. The target DNAs were amplified by performing total 40 cycles, under the conditions at 95° C. for 10 seconds, at 60° C. for 10 seconds, at 72° C. for 20 seconds. Final extension was performed at 72° C. for 10 minutes. Results were expressed relative to the gene RPL-22 by comparative Ct method. The primers used in the PCR are described in Table 1. […]
hNPCs were proliferated in a DMEM/F12 (1:1) Glutamax medium, and then differentiated to neurons in a Neurobasal (NB) medium containing 2% of B-27 minus-AO supplement (GIBCO), 10 μM of forskolin, and 1 mM of db-cAMP, along with or without 100 μM of fusaric acid. After induction of the differentiation, the expression levels of TH and Tuj1 were measured (FIG. 2).

[3] = test system: human neural progenitor cells (hNPCs); assay: Differentiation of hNPCs into dopaminergic neurons in media with various additives; TH and Tuj1 counted with DAPI staining (FIG. 1); type: cell-based
Procedure: For dopaminergic differentiation, hNPCs were plated onto a culture dish pre-coated with 15 μg/ml of poly-L-ornithine and 4 μg/ml of fibronectin at a density of 30,000 cells/cm^2; and after 2 or 3 days the cells were cultured in a NB medium comprising differentiation-inducing agents such as 2% of B27 minus-AO supplement (GIBCO), 10 μM of forskolin, 1 mM of db-cAMP and […] of fusaric acid, at 37° C. for 7 days, unless otherwise described.
hNPCs were washed with PBS three times and then fixed with 4% paraformaldehyde in PBS for 10 minutes. The cells were washed with PBS three times and then blocked by reacting with 3% Normal goat serum, 0.2% Triton X-100 and 1% BSA in PBS at room temperature for 1 hour. […]
hNPCs were differentiated into dopaminergic neurons in media obtained by adding interleukin 1 beta, db-cAMP, and fusaric acid (Fus), in various concentrations and combinations, to a Neurobasal medium [differentiation medium (DM) control]. TH (a dopaminergic neuron marker) and Tuj1 (a neural marker) were measured through the DAPI staining (FIG. 1).

[4] = test system: human neural progenitor cells (hNPCs); assay: Substitution potential for SHH and FGF8 as differentiation-inducing agents; TH expression (FIG. 4); type: cell-based
Procedure: In order to evaluate substitution potential for the expensive SHH and FGF8 that are of limited use as a differentiation-inducing agent, hNPCs were proliferated in a DMEM/F12 (1:1) Glutamax medium. After induction of the differentiation in a Neurobasal (NB) medium (Invitrogen) using 2% of B-27, 200 ng/ml of SHH, 25 ng/ml of FGF8, 10 μM of forskolin, 100 μM of fusaric acid, and 100 μM of db-cAMP, the expression levels of TH were measured (FIG. 4).

[5] = test system: TH-expressing cells (dopaminergic neurons) differentiated from hNPCs; assay: Neuroprotective effect: differentiation induced in the presence of MPP (FIG. 6); type: cell-based, human
Text: It is known that 1-methyl-4-phenylpyridium (MPP) induces cytotoxicity on dopaminergic neurons. Therefore, we evaluated functions of fusaric acid during the differentiation, through inducing differentiation in the presence of MPP (FIG. 6).

[6] = differentiation in medium containing fusaric acid, in the presence of MPP

In the case of `CCCCc1ccc(C(=O)O)nc1` [fusaric acid, 5-butylpicolinic acid], the “differentiation into dopaminergic neurons (TH expression), hypoxia versus normoxia” value [1] is reported as “differentiated more efficiently into dopaminergic neurons in hypoxia than in normoxia”, the “expression of TH (dopaminergic neuron marker)” value [2] is reported as “remarkably high expressed” and the “expression of Tuj1 (neuronal marker)” value [2] is reported as “also increased”. For the same compound, the “expression levels of TH and Tuj1 (differentiation potential)” value ([3]; culture medium containing db-cAMP and fusaric acid, compared with other combinations (interleukin 1 beta, db-cAMP, fusaric acid) in Neurobasal medium) was “highest expression levels of TH and Tuj1”, the “differentiation potential by concentration” value ([3]; db-cAMP and fusaric acid each at 100 μM) was “the highest differentiation potential was obtained” and the “differentiation into dopaminergic neurons (TH expression)” value ([4]; 100 μM fusaric acid added in addition to 200 ng/ml SHH and 25 ng/ml FGF8) was “more increased”. The “differentiation into dopaminergic neurons (TH expression)” value ([4]; 100 μM fusaric acid instead of SHH and FGF8, NB medium, 2% B-27, 10 μM forskolin, 100 μM db-cAMP) was “higher differentiation potential into dopaminergic neurons; also recorded: differentiated most effectively into dopaminergic neurons”, the neuroprotective activity ([5]; conclusion from FIG. 6, MPP treatment) was “has neuroprotective activity” and the “expression of Tuj1 under MPP treatment” value [5, 6] was “relatively more expressed”. For the same compound, the “survival of TH-expressing cells under MPP treatment” value [5, 6] was “more TH-expressing cells survived”.
